In patent publication US8309685B2 (Celgene Avilomics Research, Inc., priority 2007, dated 2012):
Like-named read-outs stand apart in the source and are kept apart here.

Columns and labels:
[1] = test system: HCV RNA replicon in cell line ET (luc-ubi-neo/ET), human Huh7 hepatoma; assay: Method A: HCV RNA replicon antiviral assay (luciferase, ET cell line); format: cell-based, Hepatitis C virus; conditions: Hepatitis C virus, Huh-7, assay described in Example 22; for IC50: read-out: Replicon (IC50)
Method: The compounds were assayed to evaluate the antiviral activity and cytotoxicity of compounds in vitro using HCV RNA replicons. This assay used the cell line ET (luc-ubi-neo/ET), which is a human Huh7 hepatoma cell line that contains an HCV RNA replicon with a stable luciferase (Luc) reporter and three cell culture-adaptive mutations. […]
The ET cell line was grown in Dulbecco's modified essential media (DMEM), 10% fetal bovine serum (FBS), 1% penicillin-streptomycin (pen-strep), 1% glutamine, 250 μg/ml G418 in a 5% CO2 incubator at 37° C. All cell culture reagents were obtained from Mediatech (Manassas, Va.). Cells were trypsinized (1% trypsin:EDTA) and plated out at 5×10^3 cells/well in white 96-well assay plates (Costar) dedicated to cell number (cytotoxicity) or antiviral activity assessments. Drugs were added at six 3-fold concentrations each and the assay was run in DMEM, 5% FBS, 1% pen-strep, 1% glutamine. Human interferon alpha-2b (PBL Biolabs, New Brunswick, N.J.) was included in each run as a positive control compound. Cells were processed 72 hr post drug addition when the cells are still subconfluent. Antiviral activity was measured by analyzing replicon-derived luciferase activity using the Steady-Glo Luciferase Assay System (Promega, Madison, Wis.) according to manufacturer's instruction. The number of cells in each well was determined by CytoTox-1 reagent (Promega). Compound profile was derived by calculating applicable EC50 (effective concentration inhibiting virus replication by 50%), EC90 (effective concentration inhibiting virus replication by 90%), IC50 (concentration decreasing cell viability by 50%) and SI50 (selective index: […]) values.

[2] = target: T1, wild type HCV NS3/4A 1b protease enzyme (Hepatitis C virus genotype 1b, UniProt P26663); assay: HCV Protease FRET Assay (IC50_APP), wild type; format: biochemical
T1 construct: 10× stocks of NS3/4A protease enzyme from Bioenza (Mountain View, Calif.); purchased Bioenza (Mountain View, Calif.)
Method: (§1) HCV Protease FRET Assay for WT and Mutated NS3/4A 1b Enzymes (IC50—APP).
(§2) The following protocol was used to generate “apparent” IC50 (IC50—APP) values as depicted in Table 6, below. […] 5 μL of each enzyme were added to Corning (#3575) 384-well, black, microtiter plates (Corning, N.Y.) after spotting a 0.5 μL volume of 50% DMSO and serially diluted compounds prepared in 50% DMSO. Protease reactions were immediately started after enzyme addition with the addition of 45 μL of the FRET substrate and monitored for 60-90 minutes at λex485/λem520 in a Synergy^4 plate reader from BioTek (Winooski, Vt.). At the conclusion of each assay, progress curves from each well were examined for linear reaction kinetics and fit statistics (R^2, 95% confidence intervals, absolute sum of squares).
(§3) The compound numbers correspond to the compound numbers in Table 3. […] ;

[3] = target: T2, A156T mutant of the HCV NS3/4A 1b protease enzyme (Hepatitis C virus genotype 1b, UniProt P26663, A1182T); assay: HCV Protease FRET Assay (IC50_APP), A156T mutant; format: biochemical; conditions: apparent IC50, A156T mutant; read-out: IC50_APP, HCV A156T
T2 construct: 10× stocks of NS3/4A protease enzyme from Bioenza (Mountain View, Calif.); purchased Bioenza (Mountain View, Calif.)
Method: as §1, §2, §3

[4] = target: T3, D168A mutant of the HCV NS3/4A 1b protease enzyme (Hepatitis C virus genotype 1b, UniProt P26663, D1194A); assay: HCV Protease FRET Assay (IC50_APP), D168A mutant; format: biochemical; conditions: apparent IC50, D168A mutant; read-out: IC50_APP, HCV D168A
T3 construct: 10× stocks of NS3/4A protease enzyme from Bioenza (Mountain View, Calif.); purchased Bioenza (Mountain View, Calif.)
Method: as §1, §2, §3

[5] = read-out: IC50_APP, WT, apparent IC50, wild type NS3/4A 1b

Row | Compound | IC90 [1] [µM] | IC50 [1] [µM] | IC50 [2, 5] [µM] | IC50 [3] [µM] | IC50 [4] [µM] | IC50 [2] [µM]
1 | C#Cc1ccc(S(=O)(=O)NC(=O)[C@@]2(NC(=O)[C@@H]3C[C@@H](Oc4cc(-c5ccccc5)nc5cc(OC)ccc45)CN3C(=O)[C@H](CNC(=O)C=C)NC(=O)OC(C)(C)C)C[C@H]2C=C)cc1 [Compound I-61, t-butyl-(S)-3-acrylamido-1-((2S,4R)-2-((1R,2S)-1-(4-ethynylphenylsulfonylcarbamoyl)-2-vinylcyclopropylcarbamoyl)-4-(7-methoxy-2-phenylquinolin-4-yloxy)pyrrolidin-1-yl)-1-oxopropan-2-ylcarbamate] | 1 to 10 | 0.1 to 1 | 0.01 to 0.1 | 1 to 10 | 1 to 10 | 
2 | C=C[C@@H]1C[C@]1(NC(=O)[C@@H]1CC(Oc2cc(-c3ccccc3)nc3cc(OC)ccc23)CN1C(=O)OC(C)(C)C)C(=O)NS(=O)(=O)C1CC1 (some centres unmarked) [Compound I-62] | 0.1 to 1 | 0.01 to 0.1 | < 0.01 | 0.1 to 1 | 1 to 10 | 
3 | C=CC(=O)O[C@H](C)[C@H](NC(=O)OC(C)(C)C)C(=O)N1C[C@H](Oc2cc(-c3ccccc3)nc3cc(OC)ccc23)C[C@H]1C(=O)N[C@]1(C(=O)NS(=O)(=O)C2CC2)C[C@H]1C=C [Compound I-64, t-butyl-(2S,3R)-3-acryloxy-1-((2S,4R)-2-((1R,2S)-1-(cyclopropylsulfonylcarbamoyl)-2-vinylcyclopropylcarbamoyl)-4-(7-methoxy-2-phenylquinolin-4-yloxy)pyrrolidin-1-yl)-1-oxobutan-2-ylcarbamate] | 0.1 to 1 | 0.1 to 1 | < 0.01 | 0.01 to 0.1 | 0.01 to 0.1 | 
4 | C=CC(=O)N[C@@H](C(=O)N1C[C@H](Oc2cc(-c3ccccc3)nc3cc(OC)ccc23)C[C@H]1C(=O)N[C@]1(C(=O)NS(=O)(=O)C2CC2)C[C@H]1C=C)c1ccccc1 [Compound I-66, (2S,4R)-1-((R)-2-acrylamido-phenylacetyl)-N-((1R,2S)-1-(cyclopropylsulfonylcarbamoyl)-2-vinylcyclopropyl)-4-(7-methoxy-2-phenylquinolin-4-yloxy)pyrrolidine-2-carboxamide] | 0.1 to 1 | 0.01 to 0.1 | < 0.01 | 0.1 to 1 | 0.1 to 1 | 
5 | C=C[C@@H]1C[C@]1(NC(=O)[C@@H]1C[C@@H](Oc2cc(-c3ccccc3)nc3cc(OC)ccc23)CN1C(=O)[C@H](CCC(=O)N[C@@H]1C(=O)O[C@@H]1C)NC(=O)OC(C)(C)C)C(=O)NS(=O)(=O)C1CC1 [Compound I-67, t-butyl-(2S)-1-((2S,4R)-2-((1R,2S)-1-(cyclopropylsulfonylcarbamoyl)-2-vinylcyclopropylcarbamoyl)-4-(7-methoxy-2-phenylquinolin-4-yloxy)pyrrolidin-1-yl)-5-((2R,3S)-2-methyl-4-oxooxetan-3-ylamino)-1,5-dioxopentan-2-ylcarbamate] | 0.1 to 1 | 0.01 to 0.1 | < 0.01 | < 0.01 | < 0.01 | 
6 | C=C[C@@H]1C[C@]1(NC(=O)[C@@H]1C[C@@H](Oc2cc(-c3ccccc3)nc3cc(OC)ccc23)CN1C(=O)[C@H](CCC(=O)C=C(C)C)NC(=O)OC(C)(C)C)C(=O)NS(=O)(=O)C1CC1 [Compound I-68, tert-butyl-(S)-1-((2S,4R)-2-((1R,2S)-1-(cyclopropylsulfonylcarbamoyl)-2-vinylcyclopropylcarbamoyl)-4-(7-methoxy-2-phenylquinolin-4-yloxy)pyrrolidin-1-yl)-7-methyl-1,5-dioxooct-6-en-2-ylcarbamate] | 0.01 to 0.1 | < 0.01 | < 0.01 | 0.1 to 1 | 0.1 to 1 | 
7 | C=C[C@@H]1C[C@]1(NC(=O)[C@@H]1C[C@@H](Oc2cc(-c3ccccc3)nc3cc(OC)ccc23)CN1C(=O)[C@H](CCC(=O)N1CCC1=O)NC(=O)OC(C)(C)C)C(=O)NS(=O)(=O)C1CC1 [Compound I-70, t-butyl-(2S)-1-((2S,4R)-2-((1R,2S)-1-(cyclopropylsulfonylcarbamoyl)-2-vinylcyclopropylcarbamoyl)-4-(7-methoxy-2-phenylquinolin-4-yloxy)pyrrolidin-1-yl)-5-(2-oxoazetidinyl)-1,5-dioxopentan-2-ylcarbamate] | 0.1 to 1 | 0.1 to 1 | < 0.01 | < 0.01 | < 0.01 | 
8 | C#CCOC(=O)N[C@@H](CN(C)C(=O)CCCl)C(=O)N1C[C@H](Oc2cc(-c3ccccc3)nc3cc(OC)ccc23)C[C@H]1C(=O)N[C@]1(C(=O)NS(=O)(=O)C2CC2)C[C@H]1C=C [Compound I-71] | 0.1 to 1 | 0.1 to 1 | < 0.01 | 0.1 to 1 | 0.1 to 1 | 
9 | C=CC(=O)N(C)C[C@H](NC(=O)OC1CCCC1)C(=O)N1C[C@H](Oc2cc(-c3ccccc3)nc3cc(OC)ccc23)C[C@H]1C(=O)N[C@]1(C(=O)NS(=O)(=O)C2CC2)C[C@H]1C=C [Compound I-72] | 0.01 to 0.1 | < 0.01 | < 0.01 | 0.1 to 1 | 0.1 to 1 | 
10 | C=CC(=O)N(C)C[C@H](NC(=O)OC(C)(C)C)C(=O)N1C[C@H](Oc2nccc3ccc(Br)cc23)C[C@H]1C(=O)N[C@]1(C(=O)NS(=O)(=O)C2CC2)C[C@H]1C=C [Compound I-84, tert-butyl-(S)-1-((2S,4R)-4-(7-bromoisoquinolin-1-yloxy)-2-((1R,2S)-1-(cyclopropylsulfonylcarbamoyl)-2-vinylcyclopropylcarbamoyl)pyrrolidin-1-yl)-3-(N-methylacrylamido)-1-oxopropan-2-ylcarbamate] | 0.1 to 1 | 0.01 to 0.1 | < 0.01 | 0.1 to 1 | 0.1 to 1 | 
11 | C=CC(=O)N(C)CC[C@H](NC(=O)OC1CCCC1)C(=O)N1C[C@H](Oc2cc(-c3ccccc3)nc3cc(OC)ccc23)C[C@H]1C(=O)N[C@]1(C(=O)NS(=O)(=O)C2CC2)C[C@H]1C=C [Compound I-85, Cyclopentyl-(S)-1-((2S,4R)-2-((1R,2S)-1-(cyclopropylsulfonylcarbamoyl)-2-vinylcyclopropylcarbamoyl)-4-(7-methoxy-2-phenylquinolin-4-yloxy)pyrrolidin-1-yl)-4-(N-methylacrylamido)-1-oxobutan-2-ylcarbamate] | 0.01 to 0.1 | 0.01 to 0.1 | < 0.01 | 0.01 to 0.1 | 0.01 to 0.1 | 
12 | C=C[C@@H]1C[C@]1(NC(=O)[C@@H]1C[C@@H](Oc2nccc3ccccc23)CN1C(=O)[C@H](CCC(=O)C=C(C)C)NC(=O)OC(C)(C)C)C(=O)NS(=O)(=O)C1CC1 [Compound I-86, tert-butyl-(S)-1-((2S,4R)-2-((1R,2S)-1-(cyclopropylsulfonylcarbamoyl)-2-vinylcyclopropylcarbamoyl)-4-(isoquinolin-1-yloxy)pyrrolidin-1-yl)-7-methyl-1,5-dioxooct-6-en-2-ylcarbamate] | 0.01 to 0.1 | < 0.01 | < 0.01 | 0.1 to 1 | 0.1 to 1 | 
13 | C=C[C@@H]1C[C@]1(NC(=O)[C@@H]1C[C@@H](Oc2nccc3ccc(-c4cccs4)cc23)CN1C(=O)[C@H](CCC(=O)C=C(C)C)NC(=O)OC(C)(C)C)C(=O)NS(=O)(=O)C1CC1 [Compound I-87, tert-butyl-(S)-1-((2S,4R)-2-((1R,2S)-1-(cyclopropylsulfonylcarbamoyl)-2-vinylcyclopropylcarbamoyl)-4-(7-(thiophen-2-yl)isoquinolin-1-yloxy)pyrrolidin-1-yl)-7-methyl-1,5-dioxooct-6-en-2-ylcarbamate] | 0.01 to 0.1 | < 0.01 |  | 0.01 to 0.1 | 0.1 to 1 | < 0.01
